From the NIST ThermoML archive (doi:10.1021/je401057z)
± gives the expanded uncertainty stated by the source.

Details: Liquid

Cc1ccccc1C [1,2-dimethylbenzene]
vapor or sublimation pressure (456.1 K): 250 ± 10 kPa

Cc1cccc(C)c1 [1,3-dimethylbenzene]
vapor or sublimation pressure (450.1 K): 250 ± 10 kPa

Cc1ccc(C)cc1 [1,4-dimethylbenzene]
vapor or sublimation pressure (410.78 K, Ebulliometric method (Recirculating still)): 100.04 ± 3.2 kPa | vapor or sublimation pressure (412.63 K, Ebulliometric method (Recirculating still)): 105 ± 3.4 kPa | vapor or sublimation pressure (419.48 K, Ebulliometric method (Recirculating still)): 124.93 ± 4 kPa | vapor or sublimation pressure (433.57 K, Ebulliometric method (Recirculating still)): 174.88 ± 5.6 kPa | vapor or sublimation pressure (439.37 K, Ebulliometric method (Recirculating still)): 199.86 ± 6.4 kPa | vapor or sublimation pressure (444.66 K, Ebulliometric method (Recirculating still)): 224.86 ± 7.2 kPa | vapor or sublimation pressure (449.56 K, Ebulliometric method (Recirculating still)): 250.04 ± 8 kPa | vapor or sublimation pressure (449.6 K, Ebulliometric method (Recirculating still)): 250 ± 8 kPa

CC(C)CC(C)(C)C [2,2,4-trimethylpentane]
vapor or sublimation pressure (371.55 K): 100.05 ± 3.5 kPa | vapor or sublimation pressure (373.4 K): 104.94 ± 3.7 kPa | vapor or sublimation pressure (379.8 K): 124.9 ± 4.3 kPa | vapor or sublimation pressure (386.94 K): 149.96 ± 5.1 kPa | vapor or sublimation pressure (393.14 K): 174.7 ± 6 kPa | vapor or sublimation pressure (398.64 K): 199.94 ± 6.8 kPa | vapor or sublimation pressure (403.68 K): 224.91 ± 7.6 kPa | vapor or sublimation pressure (408.28 K): 249.95 ± 8.4 kPa | vapor or sublimation pressure (408.3 K): 250 ± 8 kPa

CCc1ccccc1 [ethylbenzene]
vapor or sublimation pressure (447.2 K): 250 ± 10 kPa
